These results are taken from PMC9266351, “Degradation and Detoxification of Chlorophenols with Different Structure by LAC-4 Laccase Purified from White-Rot Fungus Ganoderma lucidum” (International Journal of Environmental Research and Public …, 2022).

Assay type in all cases: biochemical, Ganoderma lucidum
The subject of test [1] is T1, LAC-4 laccase.
T1 construct: native secreted enzyme purified from culture filtrate (GYP medium, CuSO4-induced; ammonium sulfate, anion exchange, hydrophobic chromatography); about 56 kDa by SDS-PAGE
Description: degradation over […] min; Lineweaver-Burk plot. As to conditions: 50 mM acetate pH 5.0, 30 °C; 0.1-8 mM substrate, 1 U/mL enzyme.

For test [2], the system named is T1, LAC-4 laccase. Description: degradation over […] min; Lineweaver-Burk plot. As to conditions: 50 mM acetate pH 5.0, 30 °C; 0.1-8 mM substrate, 1 U/mL enzyme. The source holds these as a separate data set.
Test [3] deals with T1, LAC-4 laccase. Description: spectrophotometric oxidation at […] nm; non-linear Michaelis-Menten fit. As to conditions: 50 mM acetate pH 5.0, 30 °C; 0.01-0.06 mM substrate (all below Km), 0.01 U/mL enzyme.
The test system of test [4] is T1, LAC-4 laccase. The description is as above. The note with it: 50 mM acetate pH 5.0, 30 °C; 0.01-0.1 mM substrate, 0.01 U/mL enzyme.
Test [5] relates to T1, LAC-4 laccase. The description is as above. As to conditions: 50 mM acetate pH 5.0, 30 °C; 0.1-1.0 mM substrate, 0.01 U/mL enzyme.

A word on the Km: it is the substrate concentration at which the rate is half of its maximum. `Oc1c(Cl)ccc(Cl)c1Cl` [2,3,6-TCP]: in the test with LAC-4 laccase [1], the Km came out at 4880 µM.

As to `Oc1c(Cl)cccc1Cl` [2,6-DCP], the Km with LAC-4 laccase [2] is 3640 µM.

`COc1cccc(OC)c1O` [2,6-DMP]: the Km in the test with LAC-4 laccase [3] came out at 803 µM. In the case of `CCn1c(=NN=c2sc3cc(S(=O)(=O)O)ccc3n2CC)sc2cc(S(=O)(=O)O)ccc21` [ABTS], in the test with LAC-4 laccase [4], the Km worked out at 75 µM.

`COc1ccccc1O` [guaiacol]: the Km in the test on LAC-4 laccase [5] came out at 97 µM.
